Test results taken from patent publication US10537521B2 (priority 2016, dated 2020).
Counter-ions that a name gives are not always drawn.

Assay: Example 1: multiple-dose randomized 3-way crossover PK study of two IV tramadol regimens vs 100 mg oral q6h
Details: human, plasma, plasma
[1] = iv, 50 mg, plasma concentration, Mean, 50 mg IV Dose (h 0, 2, 4, then q4h to h 44), Time […]

Experimental: A fitted curve was obtained because the second oral peak was not measured in the study. For the modeling portion of the analysis, a validated Phoenix® WinNonlin® program version 6.4 (Certara) was used for PK analysis, simulation, graphics, tables and statistical calculations. […] For purposes of nonlinear regression, the data were weighted as 1/observed. Predicted concentration-time data were calculated based on the individual fitted PK parameters.

SMILES: COc1cccc([C@]2(O)CCCC[C@H]2CN(C)C)c1 (racemic) [Tramadol, (±)cis-2-[(dimethylamino)methyl]-1-(3-methoxyphenyl) cyclohexanol hydrochloride]
- Cmax (iv, 50 mg, Cmax(0-2), 50 mg IV regimen (h 0, 2, 4, then q4h to h 44), first dose, mean): 294 ng/mL
- Cmax (iv, 50 mg, Cmax(2-4), 50 mg IV regimen (h 0, 2, 4, then q4h to h 44), mean): 479 ng/mL
- Cmax (iv, 50 mg, Cmax(44-48), 50 mg IV regimen (h 0, 2, 4, then q4h to h 44), steady-state, mean): 711 ng/mL
- Cmax (iv, 50 mg, Cmax, 50 mg IV regimen (h 0, 2, 4, then q4h to h 44), mean): 736 ng/mL
- Tmax (iv, 50 mg, Tmax(0-2), 50 mg IV regimen (h 0, 2, 4, then q4h to h 44), mean): 0.54 h
- Tmax (iv, 50 mg, Tmax(2-4), 50 mg IV regimen (h 0, 2, 4, then q4h to h 44), mean): 2.36 h
- Tmax (iv, 50 mg, Tmax(44-48), 50 mg IV regimen (h 0, 2, 4, then q4h to h 44), mean): 44.3 h
- Tmax (iv, 50 mg, Tmax, 50 mg IV regimen (h 0, 2, 4, then q4h to h 44), mean): 30 h
- concentration at 0 h (iv, 50 mg, plasma concentration, Mean, 50 mg IV Dose (h 0, 2, 4, then q4h to h 44), Time 0.00 hr): 0.726 ng/mL
- concentration at 0.25 h (iv, 50 mg, plasma concentration, Mean, 50 mg IV Dose (h 0, 2, 4, then q4h to h 44), Time 0.250 hr): 253 ng/mL
- concentration at 0.5 h (iv, 50 mg, plasma concentration, Mean, 50 mg IV Dose (h 0, 2, 4, then q4h to h 44), Time 0.500 hr): 261 ng/mL
- concentration at 0.75 h (iv, 50 mg, plasma concentration, Mean, 50 mg IV Dose (h 0, 2, 4, then q4h to h 44), Time 0.750 hr): 243 ng/mL
- concentration at 1 h (iv, 50 mg, plasma concentration, Mean, 50 mg IV Dose (h 0, 2, 4, then q4h to h 44), Time 1.00 hr): 231 ng/mL
- concentration at 2 h (iv, 50 mg, plasma concentration, Mean, 50 mg IV Dose (h 0, 2, 4, then q4h to h 44), Time 2.00 hr): 188 ng/mL
- concentration at 2.5 h (iv, 50 mg, plasma concentration, Mean, 50 mg IV Dose (h 0, 2, 4, then q4h to h 44), Time 2.50 hr): 442 ng/mL
- concentration at 4 h (iv, 50 mg, plasma concentration, Mean, 50 mg IV Dose (h 0, 2, 4, then q4h to h 44), Time 4.00 hr): 335 ng/mL
- concentration at 4.25 h (iv, 50 mg, plasma concentration, Mean, 50 mg IV Dose (h 0, 2, 4, then q4h to h 44), Time 4.25 hr): 662 ng/mL
- concentration at 4.5 h (iv, 50 mg, plasma concentration, Mean, 50 mg IV Dose (h 0, 2, 4, then q4h to h 44), Time 4.50 hr): 592 ng/mL
- concentration at 5 h (iv, 50 mg, plasma concentration, Mean, 50 mg IV Dose (h 0, 2, 4, then q4h to h 44), Time 5.00 hr): 527 ng/mL
- concentration at 6 h (iv, 50 mg, plasma concentration, Mean, 50 mg IV Dose (h 0, 2, 4, then q4h to h 44), Time 6.00 hr): 433 ng/mL
- concentration at 8 h (iv, 50 mg, plasma concentration, Mean, 50 mg IV Dose (h 0, 2, 4, then q4h to h 44), Time 8.00 hr): 346 ng/mL
- concentration at 12 h (iv, 50 mg, plasma concentration, Mean, 50 mg IV Dose (h 0, 2, 4, then q4h to h 44), Time 12.0 hr): 353 ng/mL
- concentration at 20 h (iv, 50 mg, plasma concentration, Mean, 50 mg IV Dose (h 0, 2, 4, then q4h to h 44), Time 20.0 hr): 419 ng/mL
- concentration at 32 h (iv, 50 mg, plasma concentration, Mean, 50 mg IV Dose (h 0, 2, 4, then q4h to h 44), Time 32.0 hr): 422 ng/mL
- concentration at 40 h (iv, 50 mg, plasma concentration, Mean, 50 mg IV Dose (h 0, 2, 4, then q4h to h 44), Time 40.0 hr): 424 ng/mL
- concentration at 44 h (iv, 50 mg, plasma concentration, Mean, 50 mg IV Dose (h 0, 2, 4, then q4h to h 44), Time 44.0 hr): 424 ng/mL
- concentration at 44.3 h (iv, 50 mg, plasma concentration, Mean, 50 mg IV Dose (h 0, 2, 4, then q4h to h 44), Time 44.3 hr): 697 ng/mL
- concentration at 44.5 h (iv, 50 mg, plasma concentration, Mean, 50 mg IV Dose (h 0, 2, 4, then q4h to h 44), Time 44.5 hr): 655 ng/mL
- concentration at 44.8 h (iv, 50 mg, plasma concentration, Mean, 50 mg IV Dose (h 0, 2, 4, then q4h to h 44), Time 44.8 hr): 645 ng/mL
- concentration at 45 h (iv, 50 mg, plasma concentration, Mean, 50 mg IV Dose (h 0, 2, 4, then q4h to h 44), Time 45.0 hr): 610 ng/mL
- concentration at 45.5 h (iv, 50 mg, plasma concentration, Mean, 50 mg IV Dose (h 0, 2, 4, then q4h to h 44), Time 45.5 hr): 553 ng/mL
- concentration at 46 h (iv, 50 mg, plasma concentration, Mean, 50 mg IV Dose (h 0, 2, 4, then q4h to h 44), Time 46.0 hr): 528 ng/mL
- concentration at 47 h (iv, 50 mg, plasma concentration, Mean, 50 mg IV Dose (h 0, 2, 4, then q4h to h 44), Time 47.0 hr): 490 ng/mL
- concentration at 16 h [1]: 388 ng/mL
- concentration at 24 h [1]: 413 ng/mL
- concentration at 48 h [1]: 434 ng/mL
- AUC(0-t) (iv, 75 mg, AUC0-24, 75 mg IV regimen (h 0, 3, 6, then q6h to h 42), mean): 9930 ng·h/mL
- AUC(0-t) (iv, 75 mg, AUC0-48, 75 mg IV regimen (h 0, 3, 6, then q6h to h 42), mean): 19300 ng·h/mL
- AUC (iv, 75 mg, AUC24-48, 75 mg IV regimen (h 0, 3, 6, then q6h to h 42), mean): 9930 ng·h/mL
- AUC (iv, 75 mg, AUCtau 1, 75 mg IV regimen (h 0, 3, 6, then q6h to h 42), first dosing interval, mean): 1250 ng·h/mL
- AUC (iv, 75 mg, AUCtau n, 75 mg IV regimen (h 0, 3, 6, then q6h to h 42), last dosing interval, mean): 3040 ng·h/mL
- concentration at 3 h (iv, 75 mg, C3, 75 mg IV regimen (h 0, 3, 6, then q6h to h 42), mean): 237 ng/mL
- concentration at 48 h (iv, 75 mg, C48 (T48), 75 mg IV regimen (h 0, 3, 6, then q6h to h 42), mean): 354 ng/mL
- concentration at 1 h (iv, 75 mg, C1 h, 75 mg IV regimen (h 0, 3, 6, then q6h to h 42), mean): 361 ng/mL
- Cmax (iv, 75 mg, Cmax(0-3), 75 mg IV regimen (h 0, 3, 6, then q6h to h 42), first dose, mean): 484 ng/mL
- Cmax (iv, 75 mg, Cmax(3-6), 75 mg IV regimen (h 0, 3, 6, then q6h to h 42), mean): 756 ng/mL
- Cmax (iv, 75 mg, Cmax(42-48), 75 mg IV regimen (h 0, 3, 6, then q6h to h 42), steady-state, mean): 827 ng/mL
- Cmax (iv, 75 mg, Cmax, 75 mg IV regimen (h 0, 3, 6, then q6h to h 42), mean): 932 ng/mL
- Tmax (iv, 75 mg, Tmax(0-3), 75 mg IV regimen (h 0, 3, 6, then q6h to h 42), mean): 0.5 h
- Tmax (iv, 75 mg, Tmax(3-6), 75 mg IV regimen (h 0, 3, 6, then q6h to h 42), mean): 3.31 h
- Tmax (iv, 75 mg, Tmax(42-48), 75 mg IV regimen (h 0, 3, 6, then q6h to h 42), mean): 42.4 h
- Tmax (iv, 75 mg, Tmax, 75 mg IV regimen (h 0, 3, 6, then q6h to h 42), mean): 15.9 h
- AUC(0-t) (po, 100 mg, AUC0-24, 100 mg oral q6h to h 42, mean): 7490 ng·h/mL
- AUC(0-t) (po, 100 mg, AUC0-48, 100 mg oral q6h to h 42, mean): 19100 ng·h/mL
- AUC (po, 100 mg, AUC24-48, 100 mg oral q6h to h 42, mean): 11600 ng·h/mL
- AUC (po, 100 mg, AUCtau 1, 100 mg oral q6h to h 42, first dosing interval, mean): 1490 ng·h/mL
- AUC (po, 100 mg, AUCtau n, 100 mg oral q6h to h 42, last dosing interval, mean): 3480 ng·h/mL
- concentration at 6 h (po, 100 mg, C6, 100 mg oral q6h to h 42, mean): 197 ng/mL
- concentration at 48 h (po, 100 mg, C48 (T48), 100 mg oral q6h to h 42, mean): 497 ng/mL
- concentration at 1 h (po, 100 mg, C1 h, 100 mg oral q6h to h 42, mean): 278 ng/mL
- Cmax (po, 100 mg, Cmax(0-6), 100 mg oral q6h to h 42, first dose, mean): 377 ng/mL
- Cmax (po, 100 mg, Cmax(42-48), 100 mg oral q6h to h 42, steady-state, mean): 701 ng/mL
- Cmax (po, 100 mg, Cmax, 100 mg oral q6h to h 42, mean): 701 ng/mL
- Tmax (po, 100 mg, Tmax(0-6), 100 mg oral q6h to h 42, mean): 1.54 h
- Tmax (po, 100 mg, Tmax(42-48), 100 mg oral q6h to h 42, mean): 44 h
- Tmax (po, 100 mg, Tmax, 100 mg oral q6h to h 42, mean): 44 h
